Experimental data as given in patent US20150344466A1 (SUMITOMO CHEMICAL COMPANY, LIMITED, priority 2013, published 2015).

Columns and labels:
Format in all cases: in vivo
Culex pipiens pallens [1] = test: Knockdown spray test on adult Culex pipiens pallens (Test Example 4); settings: topical, 0.25 h, active ingredient 0.1% w/v, 0.5 ml sprayed, within 15 minutes, read-out: knockdown rate of the test insects within 15 minutes
How it was run: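 Knockdown counts were taken 2, 5 and 15 min after spraying and expressed as percent of the 10 adults tested. For the spray, 0.5 ml of solution was applied by spray gun (0.4 kg/cm^2) from 30 cm above a gauze-covered cup in a test chamber; the cup was taken out right after spraying.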

Blattella germanica [2] = test: Knockdown spray test on Blattella germanica, 2.0% w/v oil formulation (Test Example 1); settings: topical, 0.25 h, active ingredient 2.0% w/v, 1.5 ml sprayed, within 15 minutes, read-out: knockdown rate of the test insects within 15 minutes
Description: Ten Blattella germanica (5 males and 5 females) were released in a test container (8.75 cm in diameter, 7.5 cm in height, and the bottom made of 16 mesh metallic wire) with the inner wall on which butter was applied, and the container was placed on the bottom of a test chamber (bottom: 46 cm×46 cm, height: 70 cm). From a height of 60 cm above the upper surface of the container, 1.5 ml of the test drug solution was sprayed using a spray gun (a spraying pressure of 0.42 kg/cm^2). Thirty seconds after spraying, the container was taken out from the test chamber, and after 2 minutes, 5 minutes and 15 minutes, the number of knocked-down insects was counted to obtain a knockdown rate. The knockdown rate was calculated by the following equation.
(§1) Knockdown Rate (%)=(Number of Knocked-down Insects/Number of Tested Insects)×100

Musca domestica [3] = test: Filter paper/sucrose bait death rate test on Musca domestica (Test Example 5); settings: female imagoes of Musca domestica, 0.7 ml on filter paper, after 24 hours
How it was run: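 Ten female imagoes were confined in a sealed cup over a filter paper treated with 0.7 ml of test solution and 30 mg sucrose bait. Mortality was scored at 24 h and expressed as percent of tested insects killed.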

Musca domestica [4] = test: Knockdown spray test on adult Musca domestica (Test Example 3); settings: topical, 0.25 h, active ingredient 2.0% w/v, 0.5 ml sprayed, within 15 minutes, read-out: knockdown rate of the test insects within 15 minutes
Description: Ten adult Musca domestica (five males and five females) were released in a polyethylene cup (bottom diameter: 10.6 cm), and the cup was covered with a 16-mesh nylon gauze. The polyethylene cup was placed on the bottom of a test chamber (bottom: 46 cm×46 cm, height: 70 cm). From a height of 30 cm above the upper surface of the polyethylene cup, 0.5 ml of the test drug solution was sprayed using a spray gun (a spraying pressure of 0.9 kg/cm^2). Immediately after spraying, the cup was taken out from the test chamber, and after 2 minutes, 5 minutes and 15 minutes, the number of knocked-down insects was counted to obtain a knockdown rate. The knockdown rate was calculated by the following equation.
as §1

Culex pipiens pallens [5] = test: Larvicidal test on Culex pipiens pallens, eight days (Test Example 7); settings: 192 h; last-instar larvae of Culex pipiens pallens; 3.5 ppm in water; eight days later; read-out: death rate
Description: 20 last-instar larvae of Culex pipiens pallens were released into a liquid to which 0.7 ml of the above test drug solution was added to 100 ml of ion-exchanged water (a concentration of the active ingredient of 3.5 ppm). Eight days later, the life and death of the Culex pipiens pallens was examined, and the death rate was calculated. The death rate was calculated by the following equation.
Death rate (%)=(Number of dead insects/Number of tested insects)×100

Blattella germanica [6] = test: Knockdown spray test on Blattella germanica, 0.1% w/v oil formulation (Test Example 2); settings: topical, 0.25 h, active ingredient 0.1% w/v, 1.5 ml sprayed, within 15 minutes, read-out: knockdown rate of the test insects within 15 minutes
How it was run: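 Ten German cockroaches (5 males, 5 females) in a mesh-bottomed, butter-walled container were sprayed with 1.5 ml test solution from 60 cm at 0.42 kg/cm^2 inside a chamber.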

Plutella xylostella = test: Foliar spray test on Plutella xylostella on cabbage (Test Example 10); settings: 120 h, third instar larvae of Plutella xylostella on cabbage, 500 ppm spray 20 ml/cup, after five days, read-out: controlling value
Description: On the other hand, cabbage was planted in a polyethylene cup, and grown until the third-fourth true leaf was spread. The test spray solution was sprayed to the cabbage at a ratio of 20 ml/cup. After the drug solution sprayed on the cabbage was dried, 10 third instar larvae of Plutella xylostella were allowed to parasitize the cabbage. After five days, the number of Plutella xylostella was investigated, and the controlling value was calculated according to the following standard. Controlling value (%)={1−(Cb×Tai)/(Cai×Tb)}×100 In the equation, the symbols represent as follows. Cb: the number of insects in a non-treated section before treatment Cai: the number of insects in a non-treated section on observation Tb: the number of insects in a treated section before treatment Tai: the number of insects in a treated section on observation

O=C(NCC1CCOC1)c1cc(CCCc2ccccc2)on1 (centres unmarked) [(22), N-(tetrahydrofuran-3-ylmethyl)-5-(3-phenylpropyl)isoxazole-3-carboxamide]
pest or weed control at 0.1 % strength (Culex pipiens pallens [1]): ≥ 80%
pest or weed control at 2 % strength (Blattella germanica [2]): ≥ 80%
pest or weed control at 500 ppm (Musca domestica [3]): ≥ 90%
pest or weed control at 2 % strength (Musca domestica [4]): ≥ 80%

Cc1c(C(=O)NCC2CCOC2)noc1CCCc1ccccc1F (centres unmarked) [(282), N-(tetrahydrofuran-3-ylmethyl)-4-methyl-5-[3-(2-fluorophenyl)propyl]isoxazole-3-carboxamide]
pest or weed control at 0.1 % strength (Culex pipiens pallens [1]): ≥ 80%
pest or weed control at 3.5 ppm (Culex pipiens pallens [5]): ≥ 90%
pest or weed control at 500 ppm (Musca domestica [3]): ≥ 90%
pest or weed control at 0.1 % strength (Blattella germanica [6]): ≥ 80%

O=C(NCC1CCOC1)c1cc(COCc2cccc(OC(F)(F)F)c2)on1 (centres unmarked) [(78), N-(tetrahydrofuran-3-ylmethyl)-5-(3-trifluoromethoxybenzyloxymethyl)isoxazole-3-carboxamide]
pest or weed control at 0.1 % strength (Culex pipiens pallens [1]): ≥ 80%
pest or weed control at 3.5 ppm (Culex pipiens pallens [5]): ≥ 90%
pest or weed control at 0.1 % strength (Blattella germanica [6]): ≥ 80%

O=C(NCC1CCOC1)c1cc(CCCc2ccc(Cl)cc2)on1 (centres unmarked) [(252), N-(tetrahydrofuran-3-ylmethyl)-5-[3-(4-chlorophenyl]propyl) isoxazole-3-carboxamide]
pest or weed control at 0.1 % strength (Culex pipiens pallens [1]): ≥ 80%
pest or weed control at 3.5 ppm (Culex pipiens pallens [5]): ≥ 90%
pest or weed control at 500 ppm (Musca domestica [3]): ≥ 90%
pest or weed control at 0.1 % strength (Blattella germanica [6]): ≥ 80%

O=C(NCC1CCOC1)c1cc(CCCCCCOCc2ccccc2)on1 (centres unmarked) [(143), N-(tetrahydrofuran-3-ylmethyl)-5-(6-benzyloxyhexyl)isoxazole-3-carboxamide]
pest or weed control at 0.1 % strength (Culex pipiens pallens [1]): ≥ 80%
pest or weed control at 2 % strength (Blattella germanica [2]): ≥ 80%
pest or weed control at 2 % strength (Musca domestica [4]): ≥ 80%

O=C(NCC1CCOCC1)c1cc(COCc2ccccc2)on1 [(15), N-(tetrahydropyran-4-ylmethyl)-5-benzyloxymethylisoxazole-3-carboxamide]
pest or weed control at 0.1 % strength (Culex pipiens pallens [1]): ≥ 80%
pest or weed control at 2 % strength (Blattella germanica [2]): ≥ 80%
pest or weed control at 500 ppm (Plutella xylostella): ≥ 90%
pest or weed control at 2 % strength (Musca domestica [4]): ≥ 80%

O=C(NCC1CCOC1)c1cc(COCc2cccc(C(F)(F)F)c2)on1 (centres unmarked) [(64), N-(tetrahydrofuran-3-ylmethyl)-5-(3-trifluoromethylbenzyloxymethyl)isoxazole-3-carboxamide]
pest or weed control at 0.1 % strength (Culex pipiens pallens [1]): ≥ 80%
pest or weed control at 2 % strength (Blattella germanica [2]): ≥ 80%
pest or weed control at 2 % strength (Musca domestica [4]): ≥ 80%

O=C(NCC1CCCCO1)c1cc(COCc2ccccc2)on1 (centres unmarked) [(14), N-(tetrahydropyran-2-ylmethyl)-5-benzyloxymethylisoxazole-3-carboxamide]
pest or weed control at 0.1 % strength (Culex pipiens pallens [1]): ≥ 80%
pest or weed control at 2 % strength (Blattella germanica [2]): ≥ 80%
pest or weed control at 2 % strength (Musca domestica [4]): ≥ 80%

O=C(NCC1CCOCC1)c1cc(COc2cccc(C(F)(F)F)c2)on1 [(199), N-(tetrahydropyran-4-ylmethyl)-5-(3-trifluoromethylphenoxymethyl)isoxazole-3-carboxamide]
pest or weed control at 0.1 % strength (Culex pipiens pallens [1]): ≥ 80%
pest or weed control at 3.5 ppm (Culex pipiens pallens [5]): ≥ 90%

O=C(NCC1CCOC1)c1cc(COCC#Cc2ccccc2)on1 (centres unmarked) [(240), N-(tetrahydrofuran-3-ylmethyl)-5-(3-phenyl-2-propionyl)oxymethylisoxazole-3-carboxamide]
pest or weed control at 0.1 % strength (Culex pipiens pallens [1]): ≥ 80%
pest or weed control at 2 % strength (Blattella germanica [2]): ≥ 80%
pest or weed control at 0.1 % strength (Blattella germanica [6]): ≥ 80%
pest or weed control at 2 % strength (Musca domestica [4]): ≥ 80%

O=C(NCC1CCOC1)c1cc(Cc2ccccc2)on1 (centres unmarked) [(26), N-(tetrahydrofuran-3-ylmethyl)-5-benzylisoxazole-3-carboxamide]
pest or weed control at 0.1 % strength (Culex pipiens pallens [1]): ≥ 80%
pest or weed control at 2 % strength (Blattella germanica [2]): ≥ 80%
pest or weed control at 500 ppm (Musca domestica [3]): ≥ 90%
pest or weed control at 2 % strength (Musca domestica [4]): ≥ 80%

O=C(NCC1CCOCC1)c1cc(COCc2ccc(SC(F)(F)F)cc2)on1 [(96), N-(tetrahydropyran-4-ylmethyl)-5-(4-trifluoromethylthiobenzyloxymethyl)isoxazole-3-carboxamide]
pest or weed control at 0.1 % strength (Culex pipiens pallens [1]): ≥ 80%
pest or weed control at 3.5 ppm (Culex pipiens pallens [5]): ≥ 90%

O=C(NCC1CCOC1)c1cc(CCCCOCc2ccccc2)on1 (centres unmarked) [(140), N-(tetrahydrofuran-3-ylmethyl)-5-(4-benzyloxybutyl)isoxazole-3-carboxamide]
pest or weed control at 0.1 % strength (Culex pipiens pallens [1]): ≥ 80%
pest or weed control at 2 % strength (Blattella germanica [2]): ≥ 80%
pest or weed control at 2 % strength (Musca domestica [4]): ≥ 80%

O=C(NCC1CCOC1)c1cc(CCCCCOCc2ccccc2)on1 (centres unmarked) [(141), N-(tetrahydrofuran-3-ylmethyl)-5-(5-benzyloxypentyl)isoxazole-3-carboxamide]
pest or weed control at 0.1 % strength (Culex pipiens pallens [1]): ≥ 80%
pest or weed control at 2 % strength (Blattella germanica [2]): ≥ 80%
pest or weed control at 2 % strength (Musca domestica [4]): ≥ 80%

O=C(NCC1CCOC1)c1cc(COCC2CCc3ccccc3C2)on1 (centres unmarked) [(118), N-(tetrahydrofuran-3-ylmethyl)-5-(1,2,3,4-tetrahydronaphthalen-2-ylmethoxymethyl)isoxazole-3-carboxamide]
pest or weed control at 0.1 % strength (Culex pipiens pallens [1]): ≥ 80%
pest or weed control at 2 % strength (Blattella germanica [2]): ≥ 80%
pest or weed control at 500 ppm (Plutella xylostella): ≥ 90%
pest or weed control at 2 % strength (Musca domestica [4]): ≥ 80%

O=C(NCC1CCOC1)c1cc(COCc2cccc(-c3ccccc3)c2)on1 (centres unmarked) [(113), N1-(tetrahydrofuran-3-ylmethyl)-5-(3-phenylbenzyloxymethyl)isoxazole-3-carboxamide]
pest or weed control at 0.1 % strength (Culex pipiens pallens [1]): ≥ 80%
pest or weed control at 2 % strength (Blattella germanica [2]): ≥ 80%
pest or weed control at 2 % strength (Musca domestica [4]): ≥ 80%

O=C(NCC1CCOC1)c1cc(COCc2cccc3ccccc23)on1 (centres unmarked) [(27), N-(tetrahydrofuran-3-ylmethyl)-5-(1-naphthylmethoxymethyl)isoxazole-3-carboxamide]
pest or weed control at 0.1 % strength (Culex pipiens pallens [1]): ≥ 80%
pest or weed control at 2 % strength (Blattella germanica [2]): ≥ 80%
pest or weed control at 2 % strength (Musca domestica [4]): ≥ 80%

CC1(CNC(=O)c2cc(COCc3ccccc3)on2)COC1 [(334), N-(3-methyloxetan-3-ylmethyl)-5-benzyloxymethylisoxazole-3-carboxamide]
pest or weed control at 0.1 % strength (Culex pipiens pallens [1]): ≥ 80%
pest or weed control at 2 % strength (Blattella germanica [2]): ≥ 80%
pest or weed control at 0.1 % strength (Blattella germanica [6]): ≥ 80%
pest or weed control at 2 % strength (Musca domestica [4]): ≥ 80%

O=C(NCC1CCOC1)c1cc(COCc2ccccc2)on1 (centres unmarked) [(13), N-(tetrahydrofuran-3-ylmethyl)-5-benzyloxymethylisoxazole-3-carboxamide]
pest or weed control at 0.1 % strength (Culex pipiens pallens [1]): ≥ 80%
pest or weed control at 2 % strength (Blattella germanica [2]): ≥ 80%
pest or weed control at 500 ppm (Plutella xylostella): ≥ 90%
pest or weed control at 2 % strength (Musca domestica [4]): ≥ 80%

CCCCc1cc(C(=O)NCC2CCOC2)no1 (centres unmarked) [(11), N-(tetrahydrofuran-3-ylmethyl)-5-butylisoxazole-3-carboxamide]
pest or weed control at 0.1 % strength (Culex pipiens pallens [1]): ≥ 80%
pest or weed control at 2 % strength (Blattella germanica [2]): ≥ 80%
pest or weed control at 2 % strength (Musca domestica [4]): ≥ 80%

COC(=O)c1c(C(=O)NCC2CCOC2)noc1COCc1ccccc1 (centres unmarked) [(167), N-(tetrahydrofuran-3-ylmethyl)-(5-benzyloxymethyl-4-methoxycarbonyl)isoxazole-3-carboxamide]
pest or weed control at 3.5 ppm (Culex pipiens pallens [5]): ≥ 90%

O=C(NCC1CCOC1)c1cc(Cc2cccc(C(F)(F)F)c2)on1 (centres unmarked) [(158), N-(tetrahydrofuran-3-ylmethyl)-5-(3-trifluoromethylbenzyl)isoxazole-3-carboxamide]
pest or weed control at 0.1 % strength (Culex pipiens pallens [1]): ≥ 80%
pest or weed control at 2 % strength (Blattella germanica [2]): ≥ 80%
pest or weed control at 2 % strength (Musca domestica [4]): ≥ 80%
